Where two headings read alike, the source gives them in different places.
Columns and labels:
[1] = tested on: DU-145
[2] = tested on: PC-3
[3] = tested on: SN12C; experiment: NCI DTP in-vitro dose response, Renal Cancer; assay type: cell-based
[4] = tested on: ACHN; experiment: NCI DTP in-vitro dose response, Renal Cancer; assay type: cell-based
[5] = tested on: CAKI-1; experiment: NCI DTP in-vitro dose response, Renal Cancer; assay type: cell-based
[6] = tested on: TK-10; experiment: NCI DTP in-vitro dose response, Renal Cancer; assay type: cell-based
[7] = tested on: 786-0; experiment: NCI DTP in-vitro dose response, Renal Cancer; assay type: cell-based
[8] = tested on: UO-31; experiment: NCI DTP in-vitro dose response, Renal Cancer; assay type: cell-based
[9] = tested on: A498; experiment: NCI DTP in-vitro dose response, Renal Cancer; assay type: cell-based
[10] = tested on: M14; experiment: NCI DTP in-vitro dose response, Melanoma; assay type: cell-based
[11] = tested on: LOX IMVI; experiment: NCI DTP in-vitro dose response, Melanoma; assay type: cell-based
[12] = tested on: SK-MEL-5; experiment: NCI DTP in-vitro dose response, Melanoma; assay type: cell-based
[13] = tested on: SK-MEL-28; experiment: NCI DTP in-vitro dose response, Melanoma; assay type: cell-based
[14] = tested on: UACC-62; experiment: NCI DTP in-vitro dose response, Melanoma; assay type: cell-based
[15] = tested on: UACC-257; experiment: NCI DTP in-vitro dose response, Melanoma; assay type: cell-based
[16] = tested on: MALME-3M; experiment: NCI DTP in-vitro dose response, Melanoma; assay type: cell-based
[17] = tested on: SK-MEL-2; experiment: NCI DTP in-vitro dose response, Melanoma; assay type: cell-based

SMILES: O=C1c2ccccc2C(=O)c2c1ccc1nccnc21 [TABLE 5-8]
- GI50 ([1]; DU-145): 11.4 µM
- TGI ([1]; DU-145): 3.43E−5
- Percent Growth ([1]; DU-145, Log10 Concentration −4.0): −49%
- Percent Growth ([1]; DU-145, Log10 Concentration −5.0): 56%
- Percent Growth ([1]; DU-145, Log10 Concentration −6.0): 96%
- Percent Growth ([1]; DU-145, Log10 Concentration −7.0): 95%
- Percent Growth ([1]; DU-145, Log10 Concentration −8.0): 102%
- CC50 ([1]; read-out: LC50, DU-145): > 100 µM
- TGI ([2]; PC-3): >1.00E−4
- Percent Growth ([2]; PC-3, Log10 Concentration −4.0): 50%
- Percent Growth ([2]; PC-3, Log10 Concentration −5.0): 50%
- Percent Growth ([2]; PC-3, Log10 Concentration −6.0): 69%
- Percent Growth ([2]; PC-3, Log10 Concentration −7.0): 92%
- Percent Growth ([2]; PC-3, Log10 Concentration −8.0): 101%
- CC50 ([2]; read-out: LC50, PC-3): > 100 µM

SMILES: CCc1nc2ccc3c(c2[nH]1)C(=O)c1ccccc1C3=O [TABLE 4-7]
- CC50 [3]: > 100 µM
- TGI [3]: >1.00E−4
- Percent Growth ([3]; Log10 Concentration −4.0): 18%
- Percent Growth ([3]; Log10 Concentration −5.0): 46%
- Percent Growth ([3]; Log10 Concentration −6.0): 74%
- Percent Growth ([3]; Log10 Concentration −7.0): 80%
- Percent Growth ([3]; Log10 Concentration −8.0): 74%
- GI50 ([3]; read-out: GI50): 7.05 µM
- CC50 [4]: > 100 µM
- TGI [4]: 5.46E−5
- Percent Growth ([4]; Log10 Concentration −4.0): −5%
- Percent Growth ([4]; Log10 Concentration −5.0): 14%
- Percent Growth ([4]; Log10 Concentration −6.0): 62%
- Percent Growth ([4]; Log10 Concentration −7.0): 85%
- Percent Growth ([4]; Log10 Concentration −8.0): 94%
- GI50 ([4]; read-out: GI50): 1.77 µM
- CC50 [5]: > 100 µM
- TGI [5]: >1.00E−4
- Percent Growth ([5]; Log10 Concentration −4.0): 9%
- Percent Growth ([5]; Log10 Concentration −5.0): 20%
- Percent Growth ([5]; Log10 Concentration −6.0): 76%
- Percent Growth ([5]; Log10 Concentration −7.0): 91%
- Percent Growth ([5]; Log10 Concentration −8.0): 97%
- GI50 ([5]; read-out: GI50): 2.9 µM
- CC50 [6]: > 100 µM
- TGI [6]: >1.00E−4
- Percent Growth ([6]; Log10 Concentration −4.0): 3%
- Percent Growth ([6]; Log10 Concentration −5.0): 39%
- Percent Growth ([6]; Log10 Concentration −6.0): 75%
- Percent Growth ([6]; Log10 Concentration −7.0): 113%
- Percent Growth ([6]; Log10 Concentration −8.0): 95%
- GI50 ([6]; read-out: GI50): 4.88 µM
- CC50 [7]: > 100 µM
- TGI [7]: >1.00E−4
- Percent Growth ([7]; Log10 Concentration −4.0): 38%
- Percent Growth ([7]; Log10 Concentration −5.0): 68%
- Percent Growth ([7]; Log10 Concentration −6.0): 95%
- Percent Growth ([7]; Log10 Concentration −7.0): 102%
- Percent Growth ([7]; Log10 Concentration −8.0): 104%
- GI50 ([7]; read-out: GI50): 40.2 µM
- CC50 [8]: > 100 µM
- TGI [8]: >1.00E−4
- Percent Growth ([8]; Log10 Concentration −5.0): 15%
- Percent Growth ([8]; Log10 Concentration −6.0): 67%
- Percent Growth ([8]; Log10 Concentration −7.0): 83%
- Percent Growth ([8]; Log10 Concentration −8.0): 88%
- GI50 ([8]; read-out: GI50): 2.12 µM
- CC50 [9]: > 100 µM
- TGI [9]: 4.27E−5
- Percent Growth ([9]; Log10 Concentration −4.0): −20%
- Percent Growth ([9]; Log10 Concentration −5.0): 34%
- Percent Growth ([9]; Log10 Concentration −6.0): 74%
- Percent Growth ([9]; Log10 Concentration −7.0): 97%
- Percent Growth ([9]; Log10 Concentration −8.0): 94%
- GI50 ([9]; read-out: GI50): 3.89 µM

SMILES: O=C1c2ccccc2C(=O)c2c1ccc1nccnc21 [TABLE 5-5]
- CC50 [10]: > 100 µM
- TGI [10]: >1.00E−4
- Percent Growth ([10]; Log10 Concentration −5.0): 34%
- Percent Growth ([10]; Log10 Concentration −6.0): 89%
- Percent Growth ([10]; Log10 Concentration −7.0): 91%
- Percent Growth ([10]; Log10 Concentration −8.0): 95%
- GI50 ([10]; read-out: GI50): 5.14 µM
- CC50 [11]: > 100 µM
- TGI [11]: 3.89E−5
- Percent Growth ([11]; Log10 Concentration −4.0): −22%
- Percent Growth ([11]; Log10 Concentration −5.0): 31%
- Percent Growth ([11]; Log10 Concentration −6.0): 81%
- Percent Growth ([11]; Log10 Concentration −7.0): 85%
- Percent Growth ([11]; Log10 Concentration −8.0): 90%
- GI50 ([11]; read-out: GI50): 4.2 µM
- CC50 [12]: 44.4 µM
- TGI [12]: 1.71E−5
- Percent Growth ([12]; Log10 Concentration −4.0): −92%
- Percent Growth ([12]; Log10 Concentration −5.0): 28%
- Percent Growth ([12]; Log10 Concentration −6.0): 82%
- Percent Growth ([12]; Log10 Concentration −7.0): 90%
- Percent Growth ([12]; Log10 Concentration −8.0): 90%
- GI50 ([12]; read-out: GI50): 3.93 µM
- CC50 [13]: > 100 µM
- TGI [13]: 9.11E−5
- Percent Growth ([13]; Log10 Concentration −4.0): −3%
- Percent Growth ([13]; Log10 Concentration −5.0): 75%
- Percent Growth ([13]; Log10 Concentration −6.0): 104%
- Percent Growth ([13]; Log10 Concentration −7.0): 101%
- Percent Growth ([13]; Log10 Concentration −8.0): 100%
- GI50 ([13]; read-out: GI50): 21 µM
- CC50 [14]: > 100 µM
- TGI [14]: 5.61E−5
- Percent Growth ([14]; Log10 Concentration −4.0): −20%
- Percent Growth ([14]; Log10 Concentration −5.0): 60%
- Percent Growth ([14]; Log10 Concentration −6.0): 87%
- Percent Growth ([14]; Log10 Concentration −7.0): 84%
- Percent Growth ([14]; Log10 Concentration −8.0): 92%
- GI50 ([14]; read-out: GI50): 13.3 µM
- CC50 [15]: > 100 µM
- TGI [15]: 6.83E−5
- Percent Growth ([15]; Log10 Concentration −4.0): −11%
- Percent Growth ([15]; Log10 Concentration −5.0): 58%
- Percent Growth ([15]; Log10 Concentration −6.0): 99%
- Percent Growth ([15]; Log10 Concentration −7.0): 88%
- Percent Growth ([15]; Log10 Concentration −8.0): 95%
- GI50 ([15]; read-out: GI50): 13 µM
- CC50 [16]: 70.8 µM
- TGI [16]: 2.07E−5
- Percent Growth ([16]; Log10 Concentration −4.0): −64%
- Percent Growth ([16]; Log10 Concentration −5.0): 30%
- Percent Growth ([16]; Log10 Concentration −6.0): 88%
- Percent Growth ([16]; Log10 Concentration −7.0): 91%
- Percent Growth ([16]; Log10 Concentration −8.0): 97%
- GI50 ([16]; read-out: GI50): 4.48 µM
- CC50 [17]: > 100 µM
- TGI [17]: 5.59E−5
- Percent Growth ([17]; Log10 Concentration −4.0): −20%
- Percent Growth ([17]; Log10 Concentration −5.0): 58%
- Percent Growth ([17]; Log10 Concentration −6.0): 102%
- Percent Growth ([17]; Log10 Concentration −7.0): 85%
- Percent Growth ([17]; Log10 Concentration −8.0): 97%
- GI50 ([17]; read-out: GI50): 12.7 µM

— patent US8445492B2, “Method for inhibiting growth of cancer cells and cell telomere and diseases of cell proliferation by using heteroannelated anthraquinone derivative compounds” (National Defense Medical Center, priority 2008, dated 2013)
